Article PMC6550523, “De Novo Emergence of Peptides That Confer Antibiotic Resistance” (mBio, 2019)
Where two headings read alike, the source gives them in different places.

Key:
[1] = system: E. coli membrane potential; experiment: Membrane potential assay with DiBAC4(3); type: cell-based, Escherichia coli; details: 100 μM CCCP, 30 min, room temperature; positive control
Protocol: Bacteria were grown overnight in MHB supplemented with 15 mg/liter chloramphenicol at 37°C. The following day all cultures were diluted 1:100 in MHB supplemented with 15 mg/liter chloramphenicol and grown to an OD600 of approximately 0.3 (time point 0). At the target OD600, IPTG was added to each culture to a final concentration of 1 mM, and cells were incubated for another 60 min to allow expression of proteins (time point 1). At both time points, approximately 10^6 cells were transferred to 1 ml PBS with 10 mg/liter DiBAC4(3) (D8189; Sigma-Aldrich) with or without 100 μM carbonyl cyanide 3-chlorophenylhydrazone (CCCP; Sigma-Aldrich) and incubated for 30 min at room temperature in the dark. Fluorescence was measured with a MACSQuant VYB (Miltenyi Biotec) using the GFP/FITC (green fluorescent protein/fluorescein isothiocyanate) channel and a threshold of 15,000 gated cells. The raw data were analyzed and visualized with FlowJo (BD Bioscience).

[2] = system: Escherichia coli K-12 strain BW25113; experiment: MIC determination (Etest) in strains expressing the peptides; type: cell-based; details: for Increased aminoglycoside resistance on overexpression of endogenous E. coli peptides: TisB from a pBAD promoter, arabinose 0.0125 to 0.2%, at viable expression levels
Protocol: Most strains used in this study were derived from Escherichia coli K-12 BW25113 (designated E. coli throughout the text) and are listed in Table S1 in the supplemental material. If not indicated otherwise, Muller Hinton broth (MHB) (Becton, Dickinson) was used for growth in liquid cultures and Muller Hinton agar (MHA; MHB supplemented with 15 g/liter agar) for growth on plates. To maintain the plasmid pRD2 or pBAD18, the growth media were supplemented with 100 mg/liter ampicillin or 15 mg/liter chloramphenicol, respectively. Induction of expression was performed in the presence of 1 mM IPTG (pRD2) or 0.2% arabinose (pBAD18). For counterselection of sacB, no-salt lysogeny agar plates (10 g/liter tryptone, 5 g/liter yeast extract, 15 g/liter agar, and 50 g/liter sucrose) were used. Recovery after transformation was done in SOC medium (20 g/liter tryptone, 5 g/liter yeast extract, 0.5 g/liter NaCl, 10 mM MgCl2, […], and 4 g/liter glucose). For washing and dilution of cells, phosphate-buffered saline (PBS; 8 g/liter NaCl, 0.2 g/liter KCl, 1.44 g/liter Na2HPO4, and 0.24 g/liter KH2PO4) was used.
MICs were determined using Etest strips (bioMérieux). Overnight cultures of the strains of interest were diluted 1:20 in PBS and spread on an MHA plate containing 100 mg/liter ampicillin and 1 mM IPTG where necessary with a cotton swab. Etest strips were applied in the middle of the plates and incubated at 37°C overnight. MIC values were scored after 20 h of incubation. Colistin MICs were determined using microdilution. For this, bacteria were grown on MHA with 100 mg/liter ampicillin, and 1 to 2 colonies were dissolved in 1 ml PBS to approximately 0.5 McFarland. The cell suspension was diluted 1:100 in Muller Hinton 2 broth (cation adjusted), and 50 μl was mixed with 50 μl Muller Hinton 2 broth containing 0.4% arabinose, 30 mg/liter chloramphenicol, and a 2-fold dilution series of colistin. The assay was performed in round-bottomed 96-well plates at 37°C overnight in a stationary position. The MIC was determined as the concentration where no growth could be observed and is based on a minimum of two biological replicates. If the determined values of the replicates were not identical, a third replicate was performed.
The site saturation mutagenesis was performed with GeneArt (ThermoFisher) based on the sequence of Arp1, where each position in the wild-type sequence was replaced by the amino acids lysine (K), glutamic acid (E), proline (P), tryptophan (W), and serine (S). All variants were subcloned into our modified expression vector, pBAD18-RND, using the AgeI/HindIII cloning sites, transformed into E. coli, and delivered as a total pool glycerol stock. […] The plasmid variants were determined by Sanger sequencing (Eurofins, Germany). […]

[3] = system: bovine cytochrome c oxidase (CytcO) reconstituted into proteoliposomes; type: biochemical
Protocol: When ionophores (valinomycin, a K^+ ionophore, and/or FCCP, a protonophore similar to CCCP) are added, this gradient is partly or fully dissipated, and the so-called uncoupled rate is reached. […] Thus, we determined the RCRs after adding the Arp-1 and Arp1-L11K peptides, and as positive controls we added valinomycin and FCCP in addition to the peptides (Fig. 4B and Fig. S4C).
(A) CytcO reduces O2 to H2O, using electrons from reduced cytochrome (cyt.) c and protons from inside the liposomes. In addition, protons are pumped and a proton electrochemical gradient (positive outside) across the membrane is established. Valinomycin, a K^+ ionophore, can dissipate the charge component and FCCP, a protonophore, both components of this gradient. (B) A typical oxygen consumption experiment; the baseline with only ascorbate, TMPD, and cyt. c was first measured. Proteoliposomes then were added, initiating oxygen consumption by CytcO and build-up of a membrane potential. The coupled rate is the slope after liposome addition subtracting the baseline. Peptides (Arp1 or L11K), valinomycin, and FCCP were added, in this order, and the rates measured. RCRs were determined by dividing the different rates by the initial coupled rate. […]
CytcO activity was measured using a Clark-type oxygen electrode (Hansatech) at 25°C. […] Oxygen consumption rates and RCRs were measured essentially as described in reference [43].

E. coli = experiment: Toxicity of peptides when expressed; type: cell-based, Escherichia coli; details: expressed in E. coli from pBAD vector

carbonyl cyanide m-chlorophenyl hydrazine [CCCP]
Membrane potential, DiBAC4(3) fluorescence [1]: clear shift to higher fluorescence

IbsC: endogenous E. coli toxin peptide similar to Arp1-3 in size and hydrophobicity (MMRLVIILIVLLLISFSAY; UniProt C1P615 1-19, looked up)
Increased aminoglycoside resistance on overexpression of endogenous E. coli peptides [2]: no increased resistance

NC[C@H]1O[C@H](O[C@H]2[C@H](O)[C@@H](O[C@H]3O[C@H](CO)[C@@H](O)[C@H](N)[C@H]3O)[C@H](N)C[C@@H]2N)[C@H](O)[C@@H](O)[C@@H]1O [kanamycin]
Kanamycin MIC of the empty vector control strain ([2]; E. coli BW25113 with empty vector, Etest, 37°C, 20 h): 0.75 µg/mL

N#CC(C#N)=NNc1ccc(OC(F)(F)F)cc1 [FCCP]
Effect of ionophore added in addition to Arp1 peptide [3]: fully collapsed the gradient

LdrD: endogenous E. coli toxin peptide similar to Arp1-3 in size and hydrophobicity (MTFAELGMAFWHDLAAPVIAGILASMIVNWLNKRK; UniProt Q6BF25 1-35, looked up)
Increased aminoglycoside resistance on overexpression of endogenous E. coli peptides [2]: no increased resistance

TisB: endogenous E. coli K-12 29-mer toxin of a toxin-antitoxin system (MNLVDIAILILKLIVAALQLLDAVLKYLK; UniProt A5A627 1-29, looked up)
Toxicity when expressed (E. coli): lethal | Increased aminoglycoside resistance on overexpression of endogenous E. coli peptides [2]: no increased resistance

CC(C)[C@@H]1NC(=O)[C@H](C)OC(=O)[C@@H](C(C)C)NC(=O)[C@@H](C(C)C)OC(=O)[C@H](C(C)C)NC(=O)[C@H](C)OC(=O)[C@@H](C(C)C)NC(=O)[C@@H](C(C)C)OC(=O)[C@H](C(C)C)NC(=O)[C@H](C)OC(=O)[C@@H](C(C)C)NC(=O)[C@@H](C(C)C)OC1=O [Valinomycin, valinomycin]
Effect of ionophore added in addition to Arp1 peptide ([3]; valinomycin 6 μM, then FCCP 21 μM, positive controls): further rate increase
